Here are results for seven compounds from paper PMC5271583 (Bioorganic & medicinal chemistry letters, 2016).

Read-outs that look alike come from different tables or passages of the source.

Common to all, as to format: cell-based, rodent
One assay addresses CRAC channel (Rattus norvegicus, UniProt Q5M848). Briefly: Inhibition of Ca2+ influx in thapsigargin-activated RBL-2H3 mast cells. To be noted: for inhibition at 100 µM: RBL-2H3, read-out: Inhibition of Ca2+ influx at 100 µM (no IC50).
The test system of another assay is TNFα. Briefly: TNFα protein secretion by thapsigargin-activated RBL cells, ELISA. To be noted: 4 h, read-out: IC50 (µM) TNFα. For orientation: ELISA stands for enzyme-linked immunosorbent assay.
A further assay deals with NFAT-c1. To be noted: 10 µM and higher concentrations.
The subject of another assay is RBL-2H3 cells. Briefly: β-hexosaminidase release. To be noted: highest concentration tested.

CRAC channel, sequence (Q5M848 whole entry): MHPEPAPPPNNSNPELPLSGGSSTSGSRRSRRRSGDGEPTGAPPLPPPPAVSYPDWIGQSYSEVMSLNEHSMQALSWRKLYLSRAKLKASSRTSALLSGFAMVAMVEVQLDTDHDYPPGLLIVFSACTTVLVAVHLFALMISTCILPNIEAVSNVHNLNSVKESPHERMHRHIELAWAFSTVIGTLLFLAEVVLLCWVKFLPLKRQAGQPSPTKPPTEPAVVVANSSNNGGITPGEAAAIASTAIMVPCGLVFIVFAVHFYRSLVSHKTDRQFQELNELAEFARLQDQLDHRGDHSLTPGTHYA

Broadly, the inhibition is the relative decrease from the control value, in per cent. Take `O=C(Nc1nn(Cc2ccc(Cl)cc2Cl)c2ccccc12)c1c(F)cccc1F` [Compound 9a]: the inhibition at 100 µM on CRAC channel was under 50%. As a reminder, the IC50 is the concentration at which inhibition is half-maximal. `Cc1nnsc1C(=O)Nc1nn(Cc2ccc(Cl)cc2Cl)c2ccccc12` [Compound 9e]: the IC50 against CRAC channel was over 30 µM. Further, the inhibition at 30 µM at CRAC channel (RBL-2H3, read-out: Inhibition of Ca2+ influx at 30 µM) is about 50%. For the compound `O=C(Nc1nn(Cc2ccc(Cl)cc2Cl)c2ccccc12)c1ccc(F)cc1F` [Compound 9f], at CRAC channel, the inhibition at 100 µM was under 50%.

With `O=C(Nc1ccccc1F)c1nn(Cc2ccc(Cl)cc2Cl)c2ccccc12` [Compound 12c], the IC50 against CRAC channel is over 30 µM.

With `O=C(Nc1ccc(F)cc1F)c1nn(Cc2ccc(Cl)cc2Cl)c2ccccc12` [Compound 12e], the half-maximal inhibitory concentration (IC50) in the assay on TNFα was determined as 0.64 µM. As for `O=C(Nc1cnns1)c1nn(Cc2ccc(Cl)cc2Cl)c2ccccc12` [Compound 12h], at CRAC channel, the inhibition at 100 µM was under 50%. For the compound “N-[1-[(2,4-dichlorophenyl)methyl]indazol-3-yl]-3-fluoro-pyridine-4-carboxamide [Compound 12d]”, in the assay on NFAT-c1, the “Level of nuclear NFAT (in words)” value is recorded as “restore the levels of nuclear NFAT to that of resting MCs”. In addition, the “Inhibition of β-hex release (in words)” value in the assay on RBL-2H3 cells is reported as “nearly complete inhibition of β-hex release”. The IC50 on CRAC channel (read-out: IC50 (µM) Ca2+ influx, Table 3, SD <20%) came to 0.67 µM; at CRAC channel (read-out: IC50 (µM), inhibition of Ca2+ influx, indazole derivatives, Table 1, RBL-2H3 cells activated with Tg 1 µM, SD <35%), 0.67 µM.
